Assay results from patent publication US20050187190A1, “Autoinducer-2 compounds as immunomodulatory agents” (priority 2004, published 2005).

Assays:
[1] = biological target: T1, recombinant COX-2 (Homo sapiens, UniProt P35354); assay: Inhibition of recombinant COX-2 prostaglandin synthesis, ELISA for PGE2; assay type: biochemical
T1 sequence (P35354 18-604): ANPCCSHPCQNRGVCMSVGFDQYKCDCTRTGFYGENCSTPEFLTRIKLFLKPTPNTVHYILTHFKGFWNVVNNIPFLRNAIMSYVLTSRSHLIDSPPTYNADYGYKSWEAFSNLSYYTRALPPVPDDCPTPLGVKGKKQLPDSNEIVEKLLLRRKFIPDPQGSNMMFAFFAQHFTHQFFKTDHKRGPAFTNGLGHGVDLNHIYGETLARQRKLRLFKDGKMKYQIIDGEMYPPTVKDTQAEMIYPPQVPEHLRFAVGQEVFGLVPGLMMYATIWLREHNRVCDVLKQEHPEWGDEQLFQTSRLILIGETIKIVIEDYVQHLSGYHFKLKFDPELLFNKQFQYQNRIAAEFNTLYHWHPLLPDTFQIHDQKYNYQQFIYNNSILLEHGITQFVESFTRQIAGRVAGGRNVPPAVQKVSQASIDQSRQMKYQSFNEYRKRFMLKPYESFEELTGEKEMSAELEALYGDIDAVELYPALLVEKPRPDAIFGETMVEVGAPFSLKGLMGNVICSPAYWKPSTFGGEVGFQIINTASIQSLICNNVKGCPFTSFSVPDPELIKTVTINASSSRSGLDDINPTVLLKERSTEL
Protocol: “Max Inhibition” and “Aspirin/1000 uM” are positive inhibition controls. “Analog/500 uM,” represents the inhibition of prostaglandin synthesis by 500 μM MHF; “AI-2/40 uM” and “AI-2/80 uM” represents the inhibition of prostaglandin synthesis by 40 and 80 μM, respectively of AI-2. “Ribose/500 um” the inhibition of prostaglandin synthesis by 500 μM ribose. Prostaglandin synthesis was indirectly quantitated using an ELISA for PGE2 production.
Extracellular bacterial signals trigger expression of cyclooxygenase-2 (cox-2), which amplifies the cellular IL-6 response by catalyzing production of prostaglandin PGE2.
Aspirin, a non-specific inhibitor of COX-2 served as an inhibition control; prostaglandin synthesis was indirectly quantitated in an ELISA assay.

[2] = test system: IL-6 production in J774 macrophages; assay: IL-6 production by stimulated J774 macrophages, ELISA of culture supernatants; assay type: cell-based, mouse; details: for release of IL-6: absence of exogenously-supplied immunostimulatory factors; for production of IL-6: regardless of stimulus: viral ribopolymers, LPS or lipoteichoic acid; for effect on IL-6 production: LPS-treated macrophages
Protocol: (§1) J774.1 macrophages were cultured in RPMI 1640 medium containing 15% fetal calf serum in a humidified 37° C. incubator supplied with 5% CO2. Cells were plated at 50% confluency in 96 well format and allowed to attach overnight. For immunostimulation experiments, cells were incubated overnight in 100 μl of the above medium containing sub-maximal stimulatory levels of inducers: 0.1 μg/mL Salmonella lipopolysaccharide (Sigma), 1 μg/mL lipoteichoic acid (Sigma) or sterile, cell-free bacterially conditioned medium at a final concentration of 10^7 cell equivalents/mL. Following incubation, the medium was removed, centrifuged, and stored at −20° C. for subsequent assay for the presence of released cytokines. Preparation of bacterially conditioned medium Pseudomonas aeruginosa strain PAO1 and Lux^+ or Lux^− strains of Salmonella typhimurium 14028 were cultured in Luria Broth overnight. The optical density of the cultures was measured at 600 nm and cell densities calculated through use of a MacFarland's standard. Bacterial cultures were centrifuged and supernatants were filtered through a 0.2 micron sterile filter to remove all bacteria.
(§2) Centrifuged macrophage culture supernatants were assayed for the presence of secreted IL-1 and IL-6 through use of an ELISA kit according to the manufacturer's directions (R&D Systems, Minneapolis, Minn.). Briefly, 10 μl of culture supernatants were bound to test wells precoated with either anti-IL-1 or anti-IL-6 immunoglobulin. Bound cytokine was detected through use of a secondary cytokine-specific antibody tagged with horseradish peroxidase. Assay samples were developed through use of stabilized tetramethylbenzidine and hydrogen peroxide. Cytokine level, directly proportional to the colorimetric signal, was quantitated by measuring sample absorbance at 450 nm.

[3] = test system: nitric oxide production (iNOS activity) in J774 macrophages; assay: Nitric oxide (nitrite) production by LPS-stimulated J774 macrophages; assay type: cell-based, mouse
Protocol: FIG. 10 is a bar graph showing that AI-2 treatment suppresses nitric oxide production by LPS-stimulated J774 macrophages. “LPS+34,” “LPS+AI-2(5 ul)” and LPS+AI-2(2 ul) represents inhibition by concurrent treatment with LPS and MHF or the indicated amounts of AI-2. “LPS+ribose” is a control to show the amount of nitric oxide production in the absence of an inhibitor.

[4] = test system: IL-1 production in J774 macrophages; assay: IL-1 production by stimulated J774 macrophages, ELISA of culture supernatants; assay type: cell-based, mouse; details: for release of IL-1: absence of exogenously-supplied immunostimulatory factors; for effect on IL-1 production: LPS-treated macrophages
Protocol: as §1, §2

[5] = test system: MM32; assay: MM32 light production assay (quorum sensing activity); assay type: cell-based, Vibrio harveyi
Source text: Such agonists and analogs can be readily recognized by their action on the quorum-sensing system of bacteria such as mutant strains of Vibrio harveyi that respond to AI-2 but cannot produce it themselves. For example, AI-2 analogs and agonists can be identified by known techniques, including but not limited to, large-scale screening of compounds through use of the V. harveyi bioassay described in U.S. Pat. No. 6,780,890 and other techniques described therein. Reduction in signaling activity in the presence of a test compound indicates the ability of that compound to, for example, block bacterial pathogenesis by affecting the expression of one or more virulence factors.

[6] = LPS 0.1 μg/mL, concurrent AI-2 40 μM
[7] = LPS-stimulated macrophages, increasing amounts of enzymatically-prepared AI-2

CC(=O)C(=O)[C@@H](O)CO [AI-2]
IC50 ([1]; read-out: IC50, prostaglandin level produced by recombinant COX-2): 40 µM | reduction of overall concentration of IL-6 [2, 6]: approximately 50% | IL-6 production, dose dependence [2, 7]: increasing suppression | release of IL-6 [2]: neither AI-2 nor its biosynthesis co-products, adenine and homocysteine, cause macrophages to release IL-1 or IL-6 | reduction in IL-6 levels ([2]; macrophages stimulated with LPS (0.1 μg/ml), 5 μl of the AI-2 reaction product): ~50% | IC50 ([2]; read-out: IC50, inhibition of IL-6 production in macrophages): 40 µM | production of IL-6 [2]: decrease production of IL-6 | nitrite (breakdown product of nitric oxide) level [3]: near baseline levels | reduction of overall concentration of IL-1 [4, 6]: approximately 50% | IL-1 production, dose dependence [4, 7]: increasing suppression | release of IL-1 [4]: neither AI-2 nor its biosynthesis co-products, adenine and homocysteine, cause macrophages to release IL-1 or IL-6

CC1=C(O)C(=O)CO1 [MHF, 5-methyl-4-hydroxy-3(2H)furanone]
inhibition of Cox-2 prostaglandin synthetase activity ([1]; 500 μM MHF): inhibition of Cox-2 prostaglandin synthetase activity | quorum sensing activity [5]: displays quorum sensing activity | quorum-sensing activity ([5]; 500 μg/ml MHF): comparable to 2.5 μL enzymatically-synthesized AI-2 | IL-6 production ([2]; LPS-stimulated J774 macrophages): suppression of IL-6 production | IL-6 production ([2]; lipoteichoic acid-stimulated J774 macrophages): suppression of IL-6 production | production of IL-6 [2]: decrease production of IL-6 | reduction in IL-6 production ([2]; stimulated J774 macrophages, 500 μM MHF): 50% | concentration at which near maximal attenuation of IL-6 release occurs ([2]; stimulated J774 macrophages, little change at higher concentrations): 877 µM | concentration at which detectable attenuation of IL-6 release occurs ([2]; stimulated J774 macrophages, titration): 105 µM | IL-6 production ([2]; viral ribopolymer (polyCI)-stimulated J774 macrophages): suppression of IL-6 production | nitrite (breakdown product of nitric oxide) level [3]: near baseline levels

Nc1ncnc2nc[nH]c12 [adenine, reference compound]
release of IL-6 [2]: neither AI-2 nor its biosynthesis co-products, adenine and homocysteine, cause macrophages to release IL-1 or IL-6 | release of IL-1 [4]: neither AI-2 nor its biosynthesis co-products, adenine and homocysteine, cause macrophages to release IL-1 or IL-6

O=C1O[C@H]([C@@H](O)CO)C(O)=C1O [ascorbic acid, reference compound]
effect on IL-6 production [2]: affect neither IL-1 nor IL-6 production | effect on IL-1 production [4]: affect neither IL-1 nor IL-6 production

N[C@@H](CCS)C(=O)O [homocysteine, reference compound]
release of IL-6 [2]: neither AI-2 nor its biosynthesis co-products, adenine and homocysteine, cause macrophages to release IL-1 or IL-6 | release of IL-1 [4]: neither AI-2 nor its biosynthesis co-products, adenine and homocysteine, cause macrophages to release IL-1 or IL-6

O=C[C@H](O)[C@H](O)[C@H](O)CO [ribose, reference compound]
inhibition of PGE2 production ([1]; 500 μM ribose): inability of ribose (even at high concentrations, 500 μM) to inhibit PGE2 production | quorum-sensing activity ([5]; 50 μM ribose): lacks quorum-sensing activity | effect on IL-6 production [2]: affect neither IL-1 nor IL-6 production | production of IL-6 [2]: effects no attenuation | effect on IL-1 production [4]: affect neither IL-1 nor IL-6 production
